Results reported in patent US12238268B2, “Imaging systems and methods” (priority 2012, dated 2025).
Positions of bridges follow the written chain, without caps; N, C: chain ends. Non-standard residues stand in square brackets, D forms with d. Residues, ends and D or L forms follow the SMILES beside them. *: point of attachment. X1 = CC1(C)C(/C=C/C=C/C=C/C=C2/N(CCC(=O)*)c3ccc4ccccc4c3C2(C)C)=[N+](CCC(=O)[O-])c2ccc3ccccc3c21

Columns and labels:
ABIR = ABIR (Homo sapiens, UniProt P05106+P06756); test: ABIR binding affinity; details: relative to reference cypate-labeled RGD peptide
ABIR, sequence (P06756 31-889 limits assumed): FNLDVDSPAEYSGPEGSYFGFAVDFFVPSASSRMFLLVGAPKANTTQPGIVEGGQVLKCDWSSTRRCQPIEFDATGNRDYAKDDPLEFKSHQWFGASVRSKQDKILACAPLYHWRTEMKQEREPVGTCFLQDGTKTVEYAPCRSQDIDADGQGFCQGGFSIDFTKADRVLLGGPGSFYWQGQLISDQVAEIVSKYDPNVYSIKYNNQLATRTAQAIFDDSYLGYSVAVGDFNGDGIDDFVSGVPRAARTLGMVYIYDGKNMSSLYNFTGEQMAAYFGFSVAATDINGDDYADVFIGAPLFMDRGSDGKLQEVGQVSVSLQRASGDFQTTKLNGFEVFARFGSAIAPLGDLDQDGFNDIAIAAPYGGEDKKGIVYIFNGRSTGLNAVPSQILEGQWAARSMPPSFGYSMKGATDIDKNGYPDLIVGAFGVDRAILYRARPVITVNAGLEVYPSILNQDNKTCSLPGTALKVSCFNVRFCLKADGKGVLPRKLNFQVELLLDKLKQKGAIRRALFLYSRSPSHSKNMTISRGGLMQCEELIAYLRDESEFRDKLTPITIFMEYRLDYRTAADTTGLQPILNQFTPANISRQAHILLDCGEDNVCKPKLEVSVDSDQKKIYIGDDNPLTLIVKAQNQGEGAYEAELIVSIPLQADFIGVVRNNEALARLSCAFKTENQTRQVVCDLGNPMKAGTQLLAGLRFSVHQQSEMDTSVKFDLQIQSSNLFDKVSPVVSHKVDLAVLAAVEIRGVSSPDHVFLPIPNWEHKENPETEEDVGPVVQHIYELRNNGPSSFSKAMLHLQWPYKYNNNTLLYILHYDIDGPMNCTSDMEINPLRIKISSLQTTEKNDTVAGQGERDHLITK
ABIR, sequence (P06756 891-1048 partner limits assumed): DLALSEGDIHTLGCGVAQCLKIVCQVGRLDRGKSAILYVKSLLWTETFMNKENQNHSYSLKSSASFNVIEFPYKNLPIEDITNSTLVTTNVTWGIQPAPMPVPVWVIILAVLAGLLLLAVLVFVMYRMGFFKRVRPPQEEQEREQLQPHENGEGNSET
ABIR, sequence (P05106 27-788): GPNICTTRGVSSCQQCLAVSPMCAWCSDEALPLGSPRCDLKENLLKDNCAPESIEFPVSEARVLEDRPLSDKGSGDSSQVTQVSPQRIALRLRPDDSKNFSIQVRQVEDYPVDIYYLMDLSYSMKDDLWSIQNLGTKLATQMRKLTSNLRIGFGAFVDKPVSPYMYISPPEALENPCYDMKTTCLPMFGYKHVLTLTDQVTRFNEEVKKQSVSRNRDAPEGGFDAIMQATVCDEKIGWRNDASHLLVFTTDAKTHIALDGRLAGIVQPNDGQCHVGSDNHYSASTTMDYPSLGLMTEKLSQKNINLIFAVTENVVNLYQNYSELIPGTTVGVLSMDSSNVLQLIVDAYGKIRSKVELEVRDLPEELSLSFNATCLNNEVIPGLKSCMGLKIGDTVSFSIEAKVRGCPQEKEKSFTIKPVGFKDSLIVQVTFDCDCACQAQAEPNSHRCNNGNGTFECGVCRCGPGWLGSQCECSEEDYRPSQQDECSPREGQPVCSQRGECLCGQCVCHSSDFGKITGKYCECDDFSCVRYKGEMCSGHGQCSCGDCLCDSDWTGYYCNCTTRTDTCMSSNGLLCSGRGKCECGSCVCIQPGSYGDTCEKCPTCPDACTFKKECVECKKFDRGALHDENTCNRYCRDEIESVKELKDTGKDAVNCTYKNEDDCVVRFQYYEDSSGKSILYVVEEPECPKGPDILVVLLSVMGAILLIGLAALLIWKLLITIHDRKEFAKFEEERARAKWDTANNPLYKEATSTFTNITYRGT
Description: (§1) An example of a tumor-targeted molecular probe is LS-301, which has the structure, Cypate-cyclo (D-Cys-Gly-Arg-Asp-Ser-Pro-Cys)-Lys-OH. The spectral properties of LS-301 are suitable for NIR imaging applications (e.g., excitation/emission 790/810 nm in 20% DMSO solution; fluorescence quantum yield (ψ) 0.1 referenced to ICG). […] In addition to conferring tumor selectivity on LS-301, the unnatural D-cysteine on the peptide moiety confers higher stability because of its resistance to degradation by proteases. This biological stability in serum allows initial imaging and potential follow-up surgery to be conducted within 48 hours before subsequent hydrolysis of the probe through L-amino acid residues.

[1] = Biological stability in serum; type: in vitro ADME; details: hydrolysis through L-amino acid residues
Description: as §1

liver tumors = test: Goggle-aided fluorescence imaging of liver tumors, mice; type: in vivo; details: goggle device 102
Experimental: (§2) In another example, a multimodal detection technique was implemented in which goggle-aided fluorescence imaging (e.g., using goggle device 102 (shown in FIG. 1) and indocyanine green dye) was combined with ultrasound imaging and standard histology. Specifically, fluorescence imaging was used to detect liver tumors in mice and to perform liver resections on the tumors. […] Further, liver resection was performed on a rabbit using ultrasound, fluorescence imaging, and standard histology. […] The excised tissues were later examined by histopathology, and it was confirmed that the tumors were cancerous.

[2] = test system: hepatocellular carcinoma (HCC); test: Goggle-aided fluorescence imaging of hepatocellular carcinoma in patients; type: in vivo; details: human patients
Description: In another example, goggle device 102 (shown in FIG. 1) and indocyanine green dye were used to image hepatocellular carcinoma (HCC) in human patients. Both intravenous and transarterial hepatic (TAH) delivery of indocyanine green dye were used. […] Histologic validation was used to confirm HCC in the patients.

tumors = test: Goggle-aided fluorescence imaging and liver resection, rabbit; type: in vivo; details: fluorescence goggle system 100, confirmed by ultrasound and histopathology
Experimental: as §2

| SMILES | Ki (ABIR) [nM] | biological stability in serum: time for imaging and follow-up surgery before hydrolysis of the probe [1] [hours] | detection of liver tumors by fluorescence imaging (liver tumors) | HCC-to-liver fluorescence contrast, TAH delivery instead of intravenous delivery ([2]; goggle device 102) | detection of HCC tumors by fluorescence imaging ([2]; intravenous and transarterial hepatic (TAH) delivery) | observation of tumors by fluorescence imaging (tumors) |
| --- | --- | --- | --- | --- | --- | --- |
| CC1(C)C(/C=C/C=C/C=C/C=C2/N(CCC(=O)N[C@@H]3CSSC[C@@H](C(=O)N[C@@H](CCCCN)C(=O)O)NC(=O)[C@@H]4CCCN4C(=O)[C@H](CO)NC(=O)[C@H](CC(=O)O)NC(=O)[C@H](CCCNC(=N)N)NC(=O)CNC3=O)c3ccc4ccccc4c3C2(C)C)=[N+](CCC(=O)[O-])c2ccc3ccccc3c21 [LS-301, Cypate-cyclo (D-Cys-Gly-Arg-Asp-Ser-Pro-Cys)-Lys-OH] (X1-[dC]GRDSPCK-OH; disulfide 1-7) | 26.2 ± 0.4 | ≤ 48 | – | – | – | – |
| CC1(C)C(/C=C/C=C/C=C/C=C2\N(CCCCS(=O)(=O)O)c3ccc4ccccc4c3C2(C)C)=[N+](CCCCS(=O)(=O)[O-])c2ccc3ccccc3c21 [indocyanine green dye, indocyanine green] | – | – | In addition to single tumors, scattered satellite lesions were also detected | significantly higher | Primary tumors and satellite tumors were both detected | observed in real-time |
